Results from patent publication US10640498B2, “Compounds” (MISSION THERAPEUTICS LIMITED, priority 2016, dated 2020).
pIC50: −log10 of the molar value.

Biological target: USP30 (Homo sapiens (Human), UniProt Q70CQ3)
Experiment: USP30 biochemical IC50 assay (fluorescence polarisation)
Conditions: enzyme and compound incubated 30 min at room temp; TAMRA labelled peptide-ubiquitin substrate 50 nM; read after 2 hr incubation; read-out: IC50 range
Procedure: USP30 Biochemical IC50 Assay
Dilution plates were prepared at 21 times the final concentration ([…] for a final concentration of 100 μM) in 50% DMSO in a 96-well polypropylene V-bottom plate (Greiner #651201). A typical 8-point dilution series to be 100, 30, 10, 3, 1, 0.3, 0.1, […].
Reactions were performed in duplicate in black 384 well plates (small volume, Greiner 784076) in a final reaction volume of 21 μl. Either 1 μl of 50% DMSO or diluted compound was added to the plate. USP30 was diluted in reaction buffer (40 mM Tris, pH 7.5, 0.005% Tween 20, 0.5 mg/ml BSA, 5 mM beta-mercaptoethanol) to the equivalent of 0.05 µl/well and 10 μl of diluted USP30 was added to the compound. Enzyme and compound were incubated for 30 min at room temp. Reactions were initiated by the addition of 50 nM of TAMRA labelled peptide linked to ubiquitin via an iso-peptide bond as fluorescence polarisation substrate. Reactions were read immediately after addition of substrate and following a 2 hr incubation at room temperature. Readings were performed on a Pherastar Plus (BMG Labtech). λ Excitation 540 nm; λ Emission 590 nm.

Chain of USP30 (Q70CQ3 57-517): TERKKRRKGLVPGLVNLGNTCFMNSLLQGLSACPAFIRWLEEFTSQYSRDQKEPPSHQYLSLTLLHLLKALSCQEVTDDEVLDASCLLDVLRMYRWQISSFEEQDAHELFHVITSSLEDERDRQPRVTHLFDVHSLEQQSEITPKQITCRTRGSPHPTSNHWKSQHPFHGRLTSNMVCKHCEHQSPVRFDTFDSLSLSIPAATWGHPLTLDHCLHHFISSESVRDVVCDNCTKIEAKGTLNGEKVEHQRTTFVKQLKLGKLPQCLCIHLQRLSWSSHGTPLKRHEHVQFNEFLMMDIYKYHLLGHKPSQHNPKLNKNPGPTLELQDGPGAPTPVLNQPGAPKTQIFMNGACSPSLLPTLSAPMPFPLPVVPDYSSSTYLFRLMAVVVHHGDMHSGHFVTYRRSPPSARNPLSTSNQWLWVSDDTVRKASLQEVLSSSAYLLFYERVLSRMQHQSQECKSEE

SMILES	pIC50
CN1CCN(C(=O)c2ccc(-c3ccc4c(c3)CCN4C(=O)C3(F)CCN(C#N)C3)cc2)CC1 (centres unmarked) [Example 38, 3-Fluoro-3-(5-(4-(4-methylpiperazine-1-carbonyl)phenyl)indoline-1-carbonyl)pyrrolidine-1-carbonitrile]	5.00 to 6.00
Cn1ncc2cc(-c3ccc4c(c3)CCN4C(=O)C3(F)CCN(C#N)C3)ccc21 (centres unmarked) [Example 39, 3-Fluoro-3-(5-(1-methyl-1H-indazol-5-yl)indoline-1-carbonyl)pyrrolidine-1-carbonitrile]	6.00 to 7.00
Cc1ccc(F)c(-c2ccc3c(c2)CCN3C(=O)C2(F)CCN(C#N)C2)c1 (centres unmarked) [Example 40, 3-Fluoro-3-(5-(2-fluoro-5-methylphenyl)indoline-1-carbonyl)pyrrolidine-1-carbonitrile]	> 7.00
Cc1ccc2[nH]ncc2c1-c1ccc2c(c1)CCN2C(=O)C1(F)CCN(C#N)C1 (centres unmarked) [Example 41, 3-Fluoro-3-(5-(5-methyl-1H-indazol-4-yl)indoline-1-carbonyl)pyrrolidine-1-carbonitrile]	6.00 to 7.00
N#CN1CCC(F)(C(=O)N2CCc3cc(-c4cccc(NS(=O)(=O)C5CC5)c4)ccc32)C1 (centres unmarked) [Example 42, N-(3-(1-(1-Cyano-3-fluoropyrrolidine-3-carbonyl)indolin-5-yl)phenyl)cyclopropanesulfonamide]	6.00 to 7.00
COc1ccc(-c2ccc3c(c2)CCN3C(=O)C2(F)CCN(C#N)C2)cn1 (centres unmarked) [Example 43, 3-Fluoro-3-(5-(6-methoxypyridin-3-yl)indoline-1-carbonyl)pyrrolidine-1-carbonitrile]	6.00 to 7.00
CCN(C(=O)[C@@H]1CCN(C#N)C1)c1ccc(-c2ccc(C#N)cc2)cn1 [Example 44, (R)-1-Cyano-N-(5-(4-cyanophenyl)pyridin-2-yl)-N-ethylpyrrolidine-3-carboxamide]	5.00 to 6.00
CN(Cc1nc2ccccc2s1)C(=O)C1CCN(C#N)C1 (centres unmarked) [Example 45, N-(Benzo[d]thiazol-2-ylmethyl)-1-cyano-N-methylpyrrolidine-3-carboxamide]	5.00 to 6.00
CN(Cc1cc(-c2ccccc2)no1)C(=O)C1CCN(C#N)C1 (centres unmarked) [Example 46, 1-Cyano-N-methyl-N-((3-phenylisoxazol-5-yl)methyl)pyrrolidine-3-carboxamide]	5.00 to 6.00
CN(Cc1csc(-c2ccccc2)n1)C(=O)C1CCN(C#N)C1 (centres unmarked) [Example 47, 1-Cyano-N-methyl-N-((2-phenylthiazol-4-yl)methyl)pyrrolidine-3-carboxamide]	6.00 to 7.00
N#CN1CCC2(CCN(c3cccc(-c4ccccc4)c3)C2=O)C1 (centres unmarked) [Example 49, 7-([1,1′-Biphenyl]-3-yl)-6-oxo-2,7-diazaspiro[4,4]nonane-2-carbonitrile]	6.00 to 7.00
CCc1cccc(-c2cccc3c2CCN3C(=O)[C@@H]2CCN(C#N)C2)c1 [Example 50, (R)-3-(4-(3-Ethylphenyl)indoline-1-carbonyl)pyrrolidine-1-carbonitrile]	6.00 to 7.00
N#CN1CCC(C(=O)N2CCc3nc(-c4ccccc4)ccc32)C1 (centres unmarked) [Example 51, 3-(5-Phenyl-2,3-dihydro-1H-pyrrolo[3,2-b]pyridine-1-carbonyl)pyrrolidine-1-carbonitrile]	5.00 to 6.00
N#CN1CC[C@@](F)(C(=O)N2CCc3cc(-c4ccccc4)ccc32)C1 [Example 53, (S)-3-Fluoro-3-(5-phenylindoline-1-carbonyl)pyrrolidine-1-carbonitrile]	6.00 to 7.00
N#CN1CC[C@](F)(C(=O)N2CCc3cc(-c4ccccc4)ccc32)C1 [Example 54, (R)-3-Fluoro-3-(5-phenylindoline-1-carbonyl)pyrrolidine-1-carbonitrile]	6.00 to 7.00
N#CN1CC[C@@](F)(C(=O)N2CCc3cc(-c4cccc(Cl)c4)cnc32)C1 [Example 55, (S)-3-(5-(3-Chlorophenyl)-2,3-dihydro-1H-pyrrolo[2,3-b]pyridine-1-carbonyl)-3-fluoropyrrolidine-1-carbonitrile]	6.00 to 7.00
N#CN1CC[C@](F)(C(=O)N2CCc3cc(-c4cccc(Cl)c4)cnc32)C1 [Example 56, (R)-3-(5-(3-Chlorophenyl)-2,3-dihydro-1H-pyrrolo[2,3-b]pyridine-1-carbonyl)-3-fluoropyrrolidine-1-carbonitrile]	> 7.00
CC(C)Cn1nccc1-c1ccc2c(c1)CCN2C(=O)C1(F)CCN(C#N)C1 (centres unmarked) [Example 58, 3-Fluoro-3-(5-(1-isobutyl-1H-pyrazol-5-yl)indoline-1-carbonyl)pyrrolidine-1-carbonitrile]	5.00 to 6.00
N#CN1CCC(F)(C(=O)N2CCc3cc(-c4cnn(Cc5ccccc5)c4)ccc32)C1 (centres unmarked) [Example 59, 3-(5-(1-Benzyl-1H-pyrazol-4-yl)indoline-1-carbonyl)-3-fluoropyrrolidine-1-carbonitrile]	5.00 to 6.00
N#CN1CC[C@H](C(=O)N2CCc3cc(-c4cccc5[nH]ncc45)cnc32)C1 [Example 60, (S)-3-(5-(1H-indazol-4-yl)-2,3-dihydro-1H-pyrrolo[2,3-b]pyridine-1-carbonyl)-pyrrolidine-1-carbonitrile]	6.00 to 7.00
N#CN1CC[C@@H](C(=O)N2CCc3cc(-c4cccc5[nH]ncc45)cnc32)C1 [Example 61, (R)-3-(5-(1H-Indazol-4-yl)-2,3-dihydro-1H-pyrrolo[2,3-b]pyridine-1-carbonyl)-pyrrolidine-1-carbonitrile]	5.00 to 6.00
N#CN1CCC(F)(C(=O)N2CCc3cc(-c4ccnn4Cc4ccccn4)ccc32)C1 (centres unmarked) [Example 62, 3-Fluoro-3-(5-(1-(pyridin-2-ylmethyl)-1H-pyrazol-5-yl)indoline-1-carbonyl)pyrrolidine-1-carbonitrile]	5.00 to 6.00
N#CN1CCC(F)(C(=O)N2CCc3cc(-c4ccnn4Cc4cccnc4)ccc32)C1 (centres unmarked) [Example 63, 3-Fluoro-3-(5-(1-(pyridin-3-ylmethyl)-H-pyrazol-5-yl)indoline-1-carbonyl)pyrrolidine-1-carbonitrile]	5.00 to 6.00
N#CN1CCC(F)(C(=O)N2CCc3cc(-c4ccnn4Cc4ccccc4Cl)ccc32)C1 (centres unmarked) [Example 64, 3-(5-(1-(2-Chlorobenzyl)-1H-pyrazol-5-yl)indoline-1-carbonyl)-3-fluoropyrrolidine-1-carbonitrile]	5.00 to 6.00
N#CN1CCC(F)(C(=O)N2CCc3cc(-c4ccnn4Cc4cccc(Cl)c4)ccc32)C1 (centres unmarked) [Example 65, 3-(5-(1-(3-Chlorobenzyl)-1H-pyrazol-5-yl)indoline-1-carbonyl)-3-fluoropyrrolidine-1-carbonitrile]	6.00 to 7.00
N#CN1CCC(F)(C(=O)N2CCc3cc(-c4ccnn4Cc4ccc(Cl)cc4)ccc32)C1 (centres unmarked) [Example 66, 3-(5-(1-(4-Chlorobenzyl)-1H-pyrazol-5-yl)indoline-1-carbonyl)-3-fluoropyrrolidine-1-carbonitrile]	6.00 to 7.00
N#CN1CCC(F)(C(=O)N2CCc3cc(C(=O)NCc4ccccc4)ccc32)C1 (centres unmarked) [Example 67, N-Benzyl-1-(1-cyano-3-fluoropyrrolidine-3-carbonyl)indoline-5-carboxamide]	5.00 to 6.00
CCc1cccc(-c2cc(C(=O)NC)cc3c2CCN3C(=O)[C@@H]2CCN(C#N)C2)c1 [Example 68, (R)-1-(1-Cyanopyrrolidine-3-carbonyl)-4-(3-ethylphenyl)-N-methylindoline-6-carboxamide]	6.00 to 7.00
CNC(=O)c1cc(-c2ccccc2)c2c(c1)N(C(=O)[C@@H]1CCN(C#N)C1)CC2 [Example 69, (R)-1-(1-Cyanopyrrolidine-3-carbonyl)-N-methyl-4-phenylindoline-6-carboxamide]	5.00 to 6.00
